Structures are written as SMILES.

These results are taken from US20100291592A1, “NOVEL MARKER FOR SENSITIVITY AGAINST SULFONAMIDE COMPOUND” (priority 2006, published 2010).

Experiment [1] has as its system cancer cell line resistant to E7070. The settings on record: WO2006/030941 and WO2006/030947; cited from earlier work.
Experiment [2] concerns human colon cancer cell line (HCT116). Put plainly: Anti-tumor effect on subcutaneous transplant model of HCT116. Format: in vivo, nude mouse. The following applies: 6.25-200 mg/kg orally twice a day for 14 days. As for the experimental part:
Human non-small-cell lung cancer cell line PC9 (obtained from Immuno-Biological laboratories Co., Ltd.), human non-small-cell lung cancer cell line A549 (obtained from Dainippon Pharmaceutical), human colon cancer cell line WiDr (obtained from Dainippon Pharmaceutical) and human colon cancer cell line HCT116 (obtained from ATCC) were cultured in RPMI1640 (containing 10% FBS) in a 5% carbon dioxide incubator at 37° C. to about 80% confluence, and the cells were collected with trypsin-EDTA. Using a phosphate buffer for PC9, WiDr and HCT116 and a 50% matrigel-containing phosphate buffer for A549, 5×10^7 cells/mL suspensions were prepared, respectively. Then, 0.1 mL each of the resulting cell suspensions was subcutaneously transplanted to the side of a nude mouse.
For PC9, 8 days after the transplantation, E7820 was orally administered for 50 mg/kg, 100 mg/kg or 200 mg/kg twice a day for 14 days. For A549, 24 days after the transplantation, E7820 was orally administered for 50 mg/kg or 200 mg/kg twice a day for 7 days. For WiDr, 11 days after the transplantation, E7820 was orally administered for 50 mg/kg, 100 mg/kg or 200 mg/kg twice a day for 14 days. […]
The major and minor axes of tumors were measured with Digimatic caliper (Mitsutoyo), and tumor volumes and relative tumor volumes were calculated according to the following formulae. […]

For another experiment, the system named is EGFR1. Put plainly: EGFR1 expression level in WiDr subcutaneous transplant model (western blotting). It is filed as in vivo, nude mouse. The settings on record: for EGFR1 expression level (% of control) WiDr: WiDr tumor in nude mouse. The protocol: HCT116 or WiDr was cultured in RPMI1640 (containing 10% FBS) in a 5% carbon dioxide incubator to about 80% confluence. The cells were collected with trypsin-EDTA according to a routine procedure and 5×10^7 cells/mL suspensions were prepared with a phosphate buffer. Then, 0.1 mL each of the resulting suspension was subcutaneously transplanted to the side of a nude mouse.
For HCT116, 23 days after the transplantation, E7820 was orally administered for 12.5 mg/kg, 50 mg/kg or 200 mg/kg twice a day for 3 days. On the other hand, for WiDr, 18 days after the transplantation, E7820 was orally administered for 50 mg/kg or 200 mg/kg twice a day for 7 days. Four days after the start of administration for HCT116 and 8 days after the start of administration for WiDr, tumors were removed to prepare tumor cell lysates with various protease inhibitors and a cell lysis solution containing 10% glycerol and 1% Triton X-100 in ice. For each tumor cell lysate, an equal amount of protein was fractionated by SDS-PAGE and transferred onto a nitrocellulose membrane (Hybond ECL, Amersham Biosciences). Then, western blotting was performed by using an anti-EGFR1 antibody (Santa Cruz Biotechnology) and horse radish peroxidase-labeled anti-mouse IgG antibody (secondary antibody) (Cell Signaling) according to a routine procedure.
Detection and quantification of each band were carried out as follows. First, each band was forced to chemically develop a color with Chemiluminescent Substrate (PIERCE), which was then captured as a digital image with Image Master VDS-CL (Amersham Pharmacia Biotech, Tokyo). The digital images were saved as TIF files and numerically converted with Image Master total Lab (version 1.00, Amersham Pharmacia Biotech, Tokyo).
A general note: In western blotting, separated proteins are transferred to a membrane and probed.

Consider `Cc1ccc(NS(=O)(=O)c2cccc(C#N)c2)c2[nH]cc(C#N)c12` [E7820, N-(3-cyano-4-methyl-1H-indole-7-yl)-3-cyanobenzenesulfonamide], for which the “Cross-resistance of E7070-resistant cancer cell line (antiproliferative activity)” value in experiment [1] is given as “cross-resistance”. Further, the “Anti-tumor effect (relative tumor volume)” value in experiment [2] is “stronger anti-tumor effects”. For the same compound, in the experiment with EGFR1 (WiDr transplanted tumors), the “Effect on EGFR1 expression level (in words)” value is reported as “did not change the EGFR1 expression level”. Also, the “EGFR1 expression level (% of control) WiDr” value in the experiment with EGFR1 (50 mg/kg orally twice a day for 7 days) is given as 117 % of control; with EGFR1 (200 mg/kg orally twice a day for 7 days) it was 121 % of control.
